Data from PubChem BioAssay (NCI).
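Each compound was tested at five concentrations against cells in 96-well plates for 48 hours. Here, GI50 denotes the concentration required for 50% inhibition of growth. The concentration for full growth arrest is given as TGI.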

Columns and labels:
Experiment in all cases: NCI anticancer screen, dose series, 48 h
NCI-H226 lung = system: NCI-H226 lung
NCI-H23 lung = system: NCI-H23 lung
NCI-H460 lung = system: NCI-H460 lung
NCI-H522 lung = system: NCI-H522 lung
NCI/ADR-RES ovarian = system: NCI/ADR-RES ovarian
OVCAR-3 ovarian = system: OVCAR-3 ovarian
OVCAR-4 ovarian = system: OVCAR-4 ovarian
OVCAR-5 ovarian = system: OVCAR-5 ovarian
OVCAR-8 ovarian = system: OVCAR-8 ovarian
PC-3 prostate = system: PC-3 prostate
RPMI-8226 leukemia = system: RPMI-8226 leukemia
RXF 393 renal = system: RXF 393 renal
SF-268 CNS = system: SF-268 CNS
SF-295 CNS = system: SF-295 CNS
SF-539 CNS = system: SF-539 CNS
SK-MEL-2 melanoma = system: SK-MEL-2 melanoma
SK-MEL-28 melanoma = system: SK-MEL-28 melanoma
SK-MEL-5 melanoma = system: SK-MEL-5 melanoma
SN12C renal = system: SN12C renal
SNB-19 CNS = system: SNB-19 CNS
SNB-75 CNS = system: SNB-75 CNS
SR leukemia = system: SR leukemia
SW-620 colon = system: SW-620 colon
T-47D breast = system: T-47D breast
TK-10 renal = system: TK-10 renal
U251 CNS = system: U251 CNS
UACC-257 melanoma = system: UACC-257 melanoma
UACC-62 melanoma = system: UACC-62 melanoma
UO-31 renal = system: UO-31 renal

Structure (SMILES): FC(F)(F)c1ccc(-c2cncn2-c2ccccc2)cc1
- TGI (NCI-H226 lung): 27.8 µM
- GI50 (NCI-H23 lung): 10.4 µM
- TGI (NCI-H23 lung): 34.4 µM
- GI50 (NCI-H460 lung): 16.9 µM
- TGI (NCI-H460 lung): > 100 µM
- GI50 (NCI-H522 lung): 8.54 µM
- TGI (NCI-H522 lung): 25.2 µM
- GI50 (NCI/ADR-RES ovarian): 7.13 µM
- TGI (NCI/ADR-RES ovarian): 30.2 µM
- GI50 (OVCAR-3 ovarian): 16.6 µM
- TGI (OVCAR-3 ovarian): 38.9 µM
- GI50 (OVCAR-4 ovarian): 36 µM
- TGI (OVCAR-4 ovarian): > 100 µM
- GI50 (OVCAR-5 ovarian): 23.5 µM
- TGI (OVCAR-5 ovarian): 79.4 µM
- GI50 (OVCAR-8 ovarian): 13.6 µM
- TGI (OVCAR-8 ovarian): 33.8 µM
- GI50 (PC-3 prostate): 13 µM
- TGI (PC-3 prostate): 35.6 µM
- GI50 (RPMI-8226 leukemia): 5.75 µM
- TGI (RPMI-8226 leukemia): 27.2 µM
- GI50 (RXF 393 renal): 16.6 µM
- TGI (RXF 393 renal): 32.2 µM
- GI50 (SF-268 CNS): 36.6 µM
- TGI (SF-268 CNS): > 100 µM
- GI50 (SF-295 CNS): 19.3 µM
- TGI (SF-295 CNS): > 100 µM
- GI50 (SF-539 CNS): 15.6 µM
- TGI (SF-539 CNS): 41.8 µM
- GI50 (SK-MEL-2 melanoma): 18.2 µM
- TGI (SK-MEL-2 melanoma): 37.9 µM
- GI50 (SK-MEL-28 melanoma): 39.1 µM
- TGI (SK-MEL-28 melanoma): > 100 µM
- GI50 (SK-MEL-5 melanoma): 13 µM
- TGI (SK-MEL-5 melanoma): 26.9 µM
- GI50 (SN12C renal): 10.4 µM
- TGI (SN12C renal): 23.5 µM
- GI50 (SNB-19 CNS): 10.4 µM
- TGI (SNB-19 CNS): 38.5 µM
- GI50 (SNB-75 CNS): 15.3 µM
- TGI (SNB-75 CNS): 40.7 µM
- GI50 (SR leukemia): 1.18 µM
- TGI (SR leukemia): 7.89 µM
- GI50 (SW-620 colon): 4.03 µM
- TGI (SW-620 colon): 57.1 µM
- GI50 (T-47D breast): 15.5 µM
- TGI (T-47D breast): > 100 µM
- GI50 (TK-10 renal): 24.2 µM
- TGI (TK-10 renal): > 100 µM
- GI50 (U251 CNS): 6.89 µM
- TGI (U251 CNS): 30.6 µM
- GI50 (UACC-257 melanoma): 19.9 µM
- TGI (UACC-257 melanoma): 49 µM
- GI50 (UACC-62 melanoma): 11.2 µM
- TGI (UACC-62 melanoma): 24.9 µM
- GI50 (UO-31 renal): 4.59 µM
- TGI (UO-31 renal): 21.5 µM
